Assay results reported in patent publication EP4775580A1, “COMPOUND, PHARMACEUTICAL COMPOSITION COMPRISING SAME, AND USE THEREOF” (Euregen Biopharma Co., Ltd., priority 2023, dated 2025).

Legend:
MV-4-11 cells = assay: Antiproliferative activity, CellTiter-Glo, 7 days (Test Example 2), MV-4-11; assay type: cell-based; details: Homo sapiens, MV4-11, 168 h, 7 days incubation
Excerpt: (§1) [0134] 1. Experimental Principle: MV-4-11, Molm-13, and OCI-AML-3 cells are human hematologic tumor cell lines harboring the Menin-MLL fusion. HL-60 is a wild-type human hematologic tumor cell line without Menin-MLL fusion. […] 2. Experimental Materials: MV-4-11, Molm-13, OCI-AML-3, and HL-60 cells were all purchased from Cobioer; CellTiter-Glo® was purchased from Promega (Cat. #G7571); RPMI-1640 was purchased from Viva Cell (Cat. #C3010-0500); IMDM was purchased from Viva Cell (Cat. #C3040-0500); fetal bovine serum (FBS) was purchased from Biosera (Cat. #FB-1058/500); penicillin-streptomycin was purchased from BasalMedia (Cat. #S110JV); 0.25% Trypsin-EDTA was purchased from BasalMedia (Cat. #S310KJ); dimethyl sulfoxide (DMSO) was purchased from Sinopharm (Cat. #30072418); 96-well plates were purchased from Corning (Cat. #3610); incubator was obtained from PHCbi (Model: MCO-18AC); inverted microscope was obtained from Mingmei (Cat. #MI52-0); automated cell counter was obtained from BodBoge (Model: JSY-SC-031N); microplate reader was obtained from PerkinElmer (Model: Envision); data processing software: GraphPad Prism 8.0. 3. Experimental Methods: Four cell lines in logarithmic growth phase were resuspended in their respective growth media (MV-4-11: IMDM + 20% FBS; Molm-13: RPMI-1640 + 20% FBS; OCI-AML-3: RPMI-1640 + 20% FBS; HL-60: RPMI-1640 + 10% FBS) and diluted to target densities (12,500, 6,250, 12,500, and 12,500/mL, respectively). The cell suspensions were seeded into 96-well plates at 80 µL per well and incubated overnight at 37°C in a 5% CO2 incubator. Culture medium served as the background control. Test compounds were dissolved in DMSO to prepare 10 mmol/L stock solutions. The stock solutions were first diluted to 2 mmol/L with DMSO, followed by 4-fold serial dilutions to generate 10 concentrations. From each concentration, 2 µL was diluted with 78 µL growth medium. […] After incubation at room temperature for 10 minutes, luminescence values were read using the EnVision microplate reader, and IC50 values were calculated using GraphPad Prism 8.0 software. […]

HL-60 cells = assay: Antiproliferative activity, CellTiter-Glo, 7 days (Test Example 2), HL-60; assay type: cell-based; details: Homo sapiens, 168 h, HL-60 cells (no Menin-MLL fusion), 7 days incubation
Excerpt: as §1

Menin-M327V = biological target: T1, Menin-M327V (Homo sapiens, UniProt O00255, M322V); assay: Fluorescence polarization assay of Menin binding to MLL peptide, M327V mutant; details: FP, 8 nM Menin, 4 nM MLL peptide
T1 sequence (O00255 1-615 isoform O00255-1 M327V): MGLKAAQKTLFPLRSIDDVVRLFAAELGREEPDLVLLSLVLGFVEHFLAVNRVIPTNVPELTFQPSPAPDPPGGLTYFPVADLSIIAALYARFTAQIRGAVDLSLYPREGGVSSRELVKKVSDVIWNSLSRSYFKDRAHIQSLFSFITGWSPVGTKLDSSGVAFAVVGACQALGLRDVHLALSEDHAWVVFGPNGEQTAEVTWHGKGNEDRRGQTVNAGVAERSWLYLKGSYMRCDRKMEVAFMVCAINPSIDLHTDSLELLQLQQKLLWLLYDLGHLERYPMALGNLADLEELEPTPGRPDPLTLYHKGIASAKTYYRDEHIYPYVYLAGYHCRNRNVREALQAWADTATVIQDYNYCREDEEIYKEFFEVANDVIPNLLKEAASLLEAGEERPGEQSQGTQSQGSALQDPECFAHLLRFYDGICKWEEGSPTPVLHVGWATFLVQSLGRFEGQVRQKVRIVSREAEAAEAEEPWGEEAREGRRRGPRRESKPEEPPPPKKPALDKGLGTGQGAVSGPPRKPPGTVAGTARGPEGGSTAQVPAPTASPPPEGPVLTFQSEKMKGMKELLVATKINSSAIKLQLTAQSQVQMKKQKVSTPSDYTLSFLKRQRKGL
Excerpt: • 1. Objective: To evaluate the inhibitory activity of compounds against wild-type Menin protein (Menin-WT) and its mutant variants (Menin-M327V, Menin-M327I, Menin-T349M, Menin-S160T, Menin-S160C, Menin-G331R, and Menin-G331D). • 2. Experimental Principle: The experiment employed fluorescence polarization (FP) to detect the binding of wild-type Menin protein and its mutant variants to MLL peptide. In the absence of inhibitors, binding of wild-type Menin protein and its mutant variants to MLL peptide generates a high FP signal; upon addition of inhibitors, the binding between Menin proteins and MLL peptide is disrupted, resulting in a low FP signal. • 3. Experimental Materials: Final concentration of wild-type Menin protein and its mutant variants: 8 nM; final concentration of MLL peptide: 4 nM. Assay buffer: 50 mM Tris-HCl (pH 8.0), 120 mM NaCl, 0.005% CA-630, 2 mM DTT. • 4. […] The plate was centrifuged at 1000 rpm for 60 seconds. Subsequently, 10 µL of MLL peptide was added to each assay well. The plate was centrifuged at 1000 rpm for 60 seconds and sealed with a sealing membrane. After incubation at 23°C for 60 minutes, the plate was read using a PerkinElmer Envision reader. Data Analysis: [formula]
Curve fitting: XLFIT software was used for curve fitting, employing a four-parameter logistic model with percent inhibition versus log(compound concentration) as variables.

Row | SMILES | IC50 (MV-4-11 cells) | IC50 (HL-60 cells) | IC50 (Menin-M327V)
1 | CCN(C(=O)c1cc(F)ccc1N1CCN([C@@H]2CCN([C@H](CCCN(C)CCOC)C(C)C)C2)c2ncncc21)C(C)C [Example 3] | 10.1 nM | > 10000 nM | 49.3 nM
2 | CCN(C(=O)c1cc(F)ccc1Oc1cncnc1N1CC2(CCN(C[C@H]3CC[C@H](NS(=O)(=O)CC)CC3)CC2)C1)C(C)C [SNDX-5613, revumenib] | 14.4 nM | > 10000 nM | 1300 nM
